Assay results taken from PubChem BioAssay (NCI).
Where “and” joins values, the source holds several entries; their conditions need not be identical. Equal values may be shown once.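 Exposure lasted 48 hours, with cells grown in 96-well plates and compounds tested at five concentrations. At the GI50, growth is halved. TGI denotes the concentration required for complete inhibition of growth.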

Tested on: MDA-MB-468 breast
Assay: growth of human tumour cells (NCI), 48 h

SMILES | GI50 | TGI
COC(=O)C1=C(C(=O)ON)[C@@H]2C=C[C@@]1([C@@H](Cc1ccccc1)Nc1ccccc1)O2 | 1480 nM | 2970 nM
CCCCOc1ccc(S(=O)(=O)N2CCN(c3nccc(N4CCOCC4)n3)CC2)cc1 | 456 nM | 2530 nM
O=C(Nc1n[nH]c2nc(-c3ccc(O)cc3)c(Br)cc12)C1CC1 | 3930 nM | 8790 nM
O=C1/C(=C/c2ccc(F)cc2)CN(C(=O)C(Cl)Cl)C/C1=C\c1ccc(F)cc1 | 203 nM | 480 nM
CC(C)=Cc1cccc2[nH]c(O)c(N=Nc3ccc(S(N)(=O)=O)cc3)c12 | > 5220 nM | > 25000 nM
COc1ccc(C2=NN(C(C)=O)C(c3ccc(Oc4ccnc5cc(Cl)ccc45)c(OC)c3)C2)cc1 (configuration not stated) | 7430 nM | 65100 nM
O=c1oc2ccc(Cl)cc2c(=O)n1-c1ccc(F)cc1F | 1980 nM | 5710 nM
Cc1ccc(-c2nc(/C=N/Nc3cc(C)nc4ccc(Br)cc34)c(C)o2)cc1 | 1950 nM | 3870 nM
COc1ccc(-c2cc(-c3ccc(OC)cc3)nc(NCCCNc3ccnc4cc(Cl)ccc34)n2)cc1 | 1270 nM | 2790 nM
COc1cc(NS(C)(=O)=O)ccc1Cc1c2ccccc2nc2ccccc12 | 310 nM | 1810 nM
COc1ccc(C2CC(c3ccc(OC)cc3O)=NN2c2ccc(S(N)(=O)=O)cc2)cc1 (configuration not stated) | 22300 nM | > 100000 nM
O=C1c2ccccc2C(=O)c2c1oc1c2c(=O)[nH]c2ccc(Cl)cc21 | 249 nM | 868 nM
CCc1cccc(NC(=O)Nc2ccc(Oc3ccc4nc(NC(=O)OC)[nH]c4c3)cc2)c1 | 75.1 nM | 2960 nM
CC[C@]12C=CCN3CC[C@@]4(c5ccc(OC)cc5N(C)[C@H]4[C@@](O)(C(=O)OC)[C@@H]1OC(=O)CCC(=O)O[C@H]1CC[C@H]4[C@@H]5CC[C@H]6CC(=O)CC[C@]6(C)[C@H]5CC[C@]14C)[C@@H]32 | 3130 nM | > 100000 nM
COc1ccc(CNCCCN2C(=O)c3ccc4c5c(ccc(c35)C2=O)C(=O)N(CCCNCc2ccc(OC)c(OC)c2OC)C4=O)c(OC)c1OC | 79.3 nM | 151 nM
COc1c(O)cc2c(c1OC)-c1ccc(SC)c(=O)cc1C(NC(C)=O)CC2 (configuration not stated) | 3020 nM | > 100000 nM
CCCS(=O)(=O)Nc1cccc(Nc2ncnc3cc(NC(=O)CCl)ccc23)c1Cl | 3160 nM | 8520 nM
CCN(CC)CCn1c(=O)c2cc(OC)c(OC)cc2c2ccc3cc4c(cc3c21)OCO4 | 840 nM | 19800 nM
Cc1c[nH]c(=O)n(Cc2nnc(CCC(=O)c3nc4ccccc4[nH]3)o2)c1=O | 156 nM | 553 nM
CC(=O)Nc1ccc(OC(C)=O)cc1 | < 10 nM | < 101 nM
O=c1cc(-c2ccccc2)oc2c1ccc1ccccc12 | 23600 nM | 95400 nM
O=C(Nc1cn[nH]c1-c1nc2ccc(CN3CCOCC3)cc2[nH]1)NC1CC1 | 35.5 nM and 207 nM | 1670 nM and 9370 nM
CCn1c(SCC(=O)Nc2cc(C(F)(F)F)ccc2Cl)nc2ccccc2c1=O | 14000 nM | > 100000 nM
O=[N+]([O-])c1ccc(N=Nc2c(Cl)cc(O)cc2Cl)cc1 | 772 nM | 5810 nM
S=C1SCN(Cc2ccccc2)CN1Cc1ccccc1 | 1200 nM | 17100 nM
Fc1ccc(-c2ncn(CCCN3CCOCC3)c2-c2ccncc2)cc1 | > 25000 nM | > 25000 nM
